This is an account of results in patent US20220213061A9, “HETEROCYCLIC COMPOUNDS FOR MODULATING NR2F6” (TES Pharma S.r.l., priority 2020, published 2022).

Where a name gives a salt, the structure may show the parent alone.

This test addresses T1, recombinant human NR2F6 protein (Homo sapiens, UniProt P10588).
T1 sequence (P10588 1-404): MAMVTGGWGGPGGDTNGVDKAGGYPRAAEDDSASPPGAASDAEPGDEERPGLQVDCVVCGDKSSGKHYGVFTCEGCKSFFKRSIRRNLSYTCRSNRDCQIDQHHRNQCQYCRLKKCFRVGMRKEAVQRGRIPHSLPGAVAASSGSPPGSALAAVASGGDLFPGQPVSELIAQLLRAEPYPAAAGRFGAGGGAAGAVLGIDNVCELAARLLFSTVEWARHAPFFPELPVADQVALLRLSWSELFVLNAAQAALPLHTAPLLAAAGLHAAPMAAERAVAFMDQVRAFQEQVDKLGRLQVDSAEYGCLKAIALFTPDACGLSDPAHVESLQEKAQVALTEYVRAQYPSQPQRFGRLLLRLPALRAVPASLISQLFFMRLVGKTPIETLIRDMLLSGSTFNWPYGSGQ
Briefly: Biochemical NR2F6 binding assay (EnSpire label-free). Conditions: label-free binding to immobilized purified recombinant human NR2F6; ligands 1 nM to 100 uM, 1% DMSO. The gist of the method:
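Recombinant human NR2F6 was immobilized at pH 4.5 (50 μg/well, 16 h, 4° C) on label-free biosensor plates. Ligands were tested from 1 nM to 100 uM in 1% DMSO, with readings over 30 minutes. Binding was measured as reflected-wavelength shift (pm), and EC50 was derived from concentration-response curves.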

As for `O=C(Nc1cccc(Nc2ccccc2)c1)[C@H]1CNC[C@@H]1c1ccccc1` (racemic) [Compound I-89, (±)-trans-4-Phenyl-N-[3-(phenylamino)phenyl]pyrrolidine-3-carboxamide hydrochloride], the EC50 is less than 1 µM.

For the compound `O=C(Nc1cccc(Oc2cccnc2)c1)[C@@H]1CNC[C@H]1c1ccccc1` (racemic) [Compound I-52, dihydrochloride], the 50% effective concentration (EC50) was greater than 50 µM.

As to `O=C(Nc1cccc2cnccc12)[C@H]1CNC[C@@H]1c1cccs1` [Compound I-44, (3R,4R)—N-(Isoquinolin-5-yl)-4-(thiophen-2-yl)pyrrolidine-3-carboxamide dihydrochloride], the half-maximal effective concentration (EC50) was greater than 50 µM.

For `O=C(NC1CCN(c2ccc(F)cc2)CC1)[C@@H]1CNC[C@H]1c1ccccc1` [Compound I-121, (3S,4R)-3-{[1-(4-Fluorophenyl)Ipiperidin-4-yl]carbamoyl]}-4-phenylpyrrolidine dihydrochloride], the EC50 lay within 1 to 10 µM.

As to `O=C(Nc1cccc2ncccc12)[C@@H]1CNC[C@H]1c1ccccc1` (racemic) [Compound I-17, (±)-trans-4-Phenyl-N-(quinolin-5-yl)pyrrolidine-3-carboxamide dihydrochloride], the concentration for a half-maximal effect (EC50) lay in the range of 10 to 50 µM.

As to `O=C(Nc1cccc(Oc2ccc(C(F)(F)F)cc2)c1)[C@H]1CNC[C@@H]1c1ccccc1` (racemic) [Compound I-92, (±)-trans-4-Phenyl-N-{3-[4-(trifluoromethyl)phenoxy]phenyl}pyrrolidine-3-carboxamide hydrochloride], the half-maximal effective concentration (EC50) was in the range of 1 to 10 µM.

For the compound `Cc1ccc(O[C@H]2C[C@H](NC(=O)[C@H]3CNC[C@@H]3c3ccccc3)C2)cn1` (racemic) [Compound I-102, (±)-trans-N-{trans-3-[(6-Methylpyridin-3-yl)oxy]cyclobutyl}-4-phenylpyrrolidine-3-carboxamide dihydrochloride], the EC50 lay in the range of 1 to 10 µM.

`O=C(NC1CN(c2ccc(F)cc2)C1)[C@@H]1CNC[C@H]1c1ccccc1` [Compound I-118, (3S,4R)-4-Phenyl-N-(1-4-fluorophenylazetidin-3-yl)pyrrolidine-3-carboxamide hydrochloride]: the EC50 is less than 1 µM.

In the case of `Cc1nccc2c(NC(=O)[C@H]3CNC[C@@H]3c3ccc(C(F)(F)F)cc3)cccc12` [Compound I-96, (3R,4S)—N-(1-Methylisoquinolin-5-yl)-4-[4-(trifluoromethyl)phenyl]pyrrolidine-3-carboxamide dihydrochloride], the EC50 fell in the range of 1 to 10 µM.

For `O=C(Nc1cccnc1)[C@H]1CNC[C@@H]1c1ccccc1` (racemic) [Compound I-19, (±)-trans-4-Phenyl-N-(pyridin-3-yl)pyrrolidine-3-carboxamide dihydrochloride], the half-maximal effective concentration (EC50) is greater than 50 µM.

On to `O=C(Nc1cccc2ccccc12)[C@@H]1CNC[C@H]1c1ccccc1` [Compound I-75, (3S,4R)—N-(Naphthalen-1-yl)-4-phenylpyrrolidine-3-carboxamide hydrochloride], for which the EC50 lay in the range of 1 to 10 µM.

As for `O=C([C@@H]1CNC[C@H]1c1ccccc1)N1CC(c2cccnc2)C1` (racemic) [Compound I-48, (±)-trans-(4-Phenylpyrrolidin-3-yl)[3-(pyridin-3-yl)azetidin-1-yl]methanone dihydrochloride], the EC50 is greater than 50 µM.

Consider `c1ccc([C@@H]2CNC[C@@H]2Oc2cccc3cnccc23)cc1` (racemic) [Compound I-61, 5-{[(±)-cis-4-Phenylpyrrolidin-3-yl]oxy}isoquinoline dihydrochloride], for which the half-maximal effective concentration (EC50) fell in the range of 1 to 10 µM.

Turning to `O=C(Nc1cccc(-c2ccccc2)c1)[C@@H]1CNC[C@H]1c1ccc(F)cc1` (racemic) [Compound I-23, (±)-trans-N-(Biphenyl-3-yl)-4-(4-fluorophenyl)pyrrolidine-3-carboxamide hydrochloride], the EC50 lay in the range of 1 to 10 µM.

Take `O=C(Nc1cccc(-c2cncnc2)c1)[C@@H]1CNC[C@H]1c1ccccc1` (racemic) [Compound I-53, (±)-trans-4-Phenyl-N-[3-(pyrimidin-5-yl)phenyl]pyrrolidine-3-carboxamide trihydrochloride]: the concentration giving a half-maximal response (EC50) is greater than 50 µM.

Take `O=C(c1cccc2cnccc12)[C@H]1CNC[C@@H]1c1ccccc1` (racemic) [Compound I-100, (±)-trans Isoquinolin-5-yl[(3S,4R)-4-phenylpyrrolidin-3-yl]methanone dihydrochloride]: the 50% effective concentration (EC50) was 1 to 10 µM.

In the case of `S=C(Nc1cccc2cnccc12)N[C@@H]1CNC[C@H]1c1ccccc1` (racemic) [Compound I-7, (±)-trans-1-Isoquinolin-5-yl-3-(4-phenylpyrrolidin-3-yl)thiourea], the 50% effective concentration (EC50) fell in the range of 1 to 10 µM.

For the compound `c1ccc([C@@H]2CNC[C@H]2Oc2nc(-c3cccnc3)cs2)cc1` (racemic) [Compound I-5, (±)-trans-3-{2-[(4-Phenylpyrrolidin-3-yl)oxy]-1,3-thiazol-4-yl}pyridine], the concentration giving a half-maximal response (EC50) fell in the range of 1 to 10 µM.

Take `O=C(Nc1cccc2ccccc12)[C@@H]1CNC[C@H]1c1ccccc1` (racemic) [Compound I-16, (±)-trans-N-(Naphthalen-1-yl)-4-phenylpyrrolidine-3-carboxamide hydrochloride]: the EC50 lay in the range of 1 to 10 µM.

Consider `O=C(Nc1cccc(-c2cccnc2)c1)[C@@H]1CN(C2CCOCC2)C[C@H]1c1ccccc1` (racemic) [Compound I-54, (±)-trans-4-Phenyl-N-[3-(pyridin-3-yl)phenyl]-1-(tetrahydro-2H-pyran-4-yl)pyrrolidine-3-carboxamide], for which the EC50 is greater than 50 µM.

`O=C(Nc1cccc(-c2cccnc2)c1)[C@@H]1CN(c2ccccc2)C[C@H]1c1ccccc1` (racemic) [Compound I-62, (±)-trans-1,4-Diphenyl-N-[3-(pyridin-3-yl)phenyl]pyrrolidine-3-carboxamide]: the EC50 was less than 1 µM.

As for `O=C(NCc1ccccc1)[C@H]1CNC[C@@H]1c1ccccc1` [Compound I-33, (3R,4S)—N-Benzyl-4-phenylpyrrolidine-3-carboxamide hydrochloride], the EC50 was 10 to 50 µM.

In the case of `O=C(Nc1nccc2ccccc12)[C@@H]1CNC[C@H]1c1ccccc1` (racemic) [Compound I-12, (±)-trans-N-(Isoquinolin-1-yl)-4-phenylpyrrolidine-3-carboxamide dihydrochloride], the EC50 is greater than 50 µM.

In the case of `S=C(Nc1cccc2cnccc12)N[C@@H]1CN(Cc2ccccc2)C[C@H]1c1ccccc1` (racemic) [Compound I-6, (±)-trans-1-Isoquinolin-5-yl-3-(1-benzyl-4-phenylpyrrolidin-3-yl)thiourea], the EC50 was 1 to 10 µM.

`Cc1cc2c(NC(=O)[C@@H]3CNC[C@H]3c3ccccc3)cccc2cn1` (racemic) [Compound I-15, (±)-trans-N-(3-Methylisoquinolin-5-yl)-4-phenylpyrrolidine-3-carboxamide dihydrochloride]: the 50% effective concentration (EC50) lay in the range of 1 to 10 µM.

`c1ccc([C@H]2CNC[C@@H]2Oc2cccc3cnccc23)cc1` (racemic) [Compound I-64, 5-{[(±)-trans-4-Phenylpyrrolidin-3-yl]oxy}isoquinoline dihydrochloride]: the EC50 lay within 1 to 10 µM.

In the case of `O=C(Nc1ccc(C2CCCCC2)cc1)[C@@H]1CNC[C@H]1c1ccccc1` (racemic) [Compound I-87, (±)-trans-N-(4-Cyclohexylphenyl)-4-phenylpyrrolidine-3-carboxamide hydrochloride], the 50% effective concentration (EC50) lay within 1 to 10 µM.

A word on the EC50: it is the concentration that produces a half-maximal response.
